{
  "source": "patent US9282759B2",
  "about": "“Composition including an unsaponifiable fraction” (LABORATOIRES EXPANSCIENCE, priority 2009, dated 2016)",
  "system": "PGE2 production of arthrosis chondrocytes",
  "experiment": "PGE2 production of arthrosis chondrocytes (radioimmunoassay of culture media, per μg DNA)",
  "format": "cell-based, human",
  "settings": "10 μg/ml of the composition in culture medium, 48 h, chondrocytes of osteoarthritis patients, compared with basal conditions (9±4 pg PGE2 per μg DNA)",
  "protocol": "Thin slices of cartilage of patients suffering from osteoarthritis were excised while avoiding the calcified layer. They were washed several times in DMEM medium containing HEPES, penicillin and streptomycin. The slices of cartilage were then cut into small fragments of a few cubic millimeters.\nChondrocytes were then isolated from the extracellular matrix by a succession of enzymatic digestions. The cartilage fragments were incubated at 37° C. under constant agitation in the basic medium with, successively, hyaluronidase, pronase E and finally with clostridial collagenase.\nThe cells were then filtered through a 70 μm nylon membrane, washed with DMEM and counted using a Neubauer plate. […]\nThe cultures were maintained at 37° C. in an atmosphere of 95% air and 5% CO2. At the end of the incubation period, the culture media were taken and stored at −20° C. until they were analysed. […]\nDeoxyribonucleic acid (DNA) was quantified according to the technique of Labarca and Paigen (Labarca C. and Paigen K. A simple, rapid, and sensitive DNA assay procedure, Anal Biochem, 1980. 102: 344-52). This method is based on the principle of fluorescence emitted by a reagent, bis-benzimidazole, when it binds to DNA. […] After 1 h of incubation, the samples were read with a fluorometer using an excitation wavelength of 356 nm and an emission wavelength of 458 nm. […]",
  "data": [
    {"substance": "vitamin K2 [composition 4]", "values": [
      {"measurement": "quantity of PGE2 produced", "value": "remains constant"}
    ]}
  ]
}
